# Data from PubChem BioAssay AID1963984 (Molecular Pharmacology Branch, DTP, NCI, 2024).
# Test system: 233499-124-R-J3-PDC spheroids with HUVEC/MSC, viability
# Assay: Anticancer human tumor 233499-124-R-J3-PDC patient-derived colon adenocarcinoma cell line growth inhibition [PI3K]
# Details: for viability, T/C: stronger effect = lower value; for IC50: curve of first compound
# In short: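 Tumor cells were combined with HUVEC and MSCs into spheroids, then dosed with PI3K-inhibitor combinations over half-log ranges capped near clinical Cmax or 10 microM.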
# [1] = second compound 0.0316 µM, first compound 0.0316 µM
# [2] = second compound 0.0316 µM, first compound 0.1 µM
# [3] = second compound 0.0316 µM, first compound 0.316 µM
# [4] = second compound 0.0316 µM, first compound 1 µM
# [5] = second compound 0.0316 µM, first compound 3.16 µM
# [6] = second compound 0.0316 µM, first compound 10 µM
# [7] = second compound 0.1 µM, first compound 0.0316 µM
# [8] = second compound 0.1 µM, first compound 0.1 µM
# [9] = second compound 0.1 µM, first compound 0.316 µM
# [10] = second compound 0.1 µM, first compound 1 µM
# [11] = second compound 0.1 µM, first compound 3.16 µM
# [12] = second compound 0.1 µM, first compound 10 µM
# [13] = second compound 0.316 µM, first compound 0.0316 µM
# [14] = second compound 0.316 µM, first compound 0.1 µM
# [15] = second compound 0.316 µM, first compound 0.316 µM
# [16] = second compound 0.316 µM, first compound 1 µM
# [17] = second compound 0.316 µM, first compound 3.16 µM
# [18] = second compound 0.316 µM, first compound 10 µM
# [19] = second compound 1 µM, first compound 0.0316 µM
# [20] = second compound 1 µM, first compound 0.1 µM
# [21] = second compound 1 µM, first compound 0.316 µM
# [22] = second compound 1 µM, first compound 1 µM
# [23] = second compound 1 µM, first compound 3.16 µM
# [24] = second compound 1 µM, first compound 10 µM
# 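Note: spheroids exposed to agents for seven days before readout.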
# 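Throughout, for viability, T/C: percent viability relative to DMSO vehicle control taken as 100%.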
smiles,measurement,setting,value
Cn1cnc2c(F)c(Nc3ccc(Br)cc3Cl)c(C(=O)NOCCO)cc21,"viability, T/C",compound 0.00949 µM,80.2% [middle of 4 runs]
same,"viability, T/C",compound 0.0949 µM,64.8% [middle of 4 runs]
same,"viability, T/C",compound 0.3 µM,50.3% [middle of 4 runs]
same,"viability, T/C",compound 0.949 µM,49.8% [middle of 4 runs]
same,"viability, T/C",compound 3 µM,30.5% [middle of 4 runs]
CC1(C)CCC(Nc2ncc(C(F)(F)F)c(-c3c[nH]c4c(P(C)(C)=O)c(C#N)ccc34)n2)CN1 (centres undefined) + CC(Nc1ncnc2nc[nH]c12)c1cc2cccc(Cl)c2c(=O)n1-c1ccccc1,IC50,second compound 0.0316 µM,0.202 µM
same,IC50,second compound 0.1 µM,0.21 µM
same,IC50,second compound 0.316 µM,0.0903 µM
same,IC50,second compound 1 µM,0.17 µM
same,IC50,second compound 3.16 µM,0.273 µM
same,IC50,second compound 10 µM,< 0.0316 µM
same,"viability, T/C",[1],88.8%
same,"viability, T/C",[2],52.3%
same,"viability, T/C",[3],40%
same,"viability, T/C",[4],50.8%
same,"viability, T/C",[5],25.2%
same,"viability, T/C",[6],20.1%
same,"viability, T/C",[7],93%
same,"viability, T/C",[8],50.4%
same,"viability, T/C",[9],49%
same,"viability, T/C",[10],30.9%
same,"viability, T/C",[11],29.8%
same,"viability, T/C",[12],6.77%
same,"viability, T/C",[13],66.7%
same,"viability, T/C",[14],46%
same,"viability, T/C",[15],30.7%
same,"viability, T/C",[16],32.2%
same,"viability, T/C",[17],34%
same,"viability, T/C",[18],10.2%
same,"viability, T/C",[19],81.8%
same,"viability, T/C",[20],50.5%
same,"viability, T/C",[21],51%
same,"viability, T/C",[22],28.2%
same,"viability, T/C",[23],22.7%
same,"viability, T/C",[24],22.6%
same,"viability, T/C","second compound 3.16 µM, first compound 0.0316 µM",75.9%
same,"viability, T/C","second compound 3.16 µM, first compound 0.1 µM",67.2%
same,"viability, T/C","second compound 3.16 µM, first compound 0.316 µM",46.8%
same,"viability, T/C","second compound 3.16 µM, first compound 1 µM",27.5%
same,"viability, T/C","second compound 3.16 µM, first compound 3.16 µM",23.2%
same,"viability, T/C","second compound 3.16 µM, first compound 10 µM",4.38%
same,"viability, T/C","second compound 10 µM, first compound 0.0316 µM",52.3%
same,"viability, T/C","second compound 10 µM, first compound 0.1 µM",36.4%
same,"viability, T/C","second compound 10 µM, first compound 0.316 µM",49.6%
same,"viability, T/C","second compound 10 µM, first compound 1 µM",20.7%
same,"viability, T/C","second compound 10 µM, first compound 3.16 µM",38.8%
same,"viability, T/C","second compound 10 µM, first compound 10 µM",6.16%
C#Cc1c(F)ccc2cc(O)cc(-c3ncc4c(N5CC6CCC(C5)N6)nc(OCC56CCCN5CC(F)C6)nc4c3F)c12 (centres undefined) + CC(Nc1ccc2c(c1)OCCn1cc(N3C(=O)OCC3C(F)F)nc1-2)C(N)=O,IC50,second compound 0.00316 µM,> 10 µM
same,IC50,second compound 0.01 µM,2.92 µM
same,IC50,second compound 0.0316 µM,> 10 µM
same,IC50,second compound 0.1 µM,> 10 µM
same,IC50,second compound 0.316 µM,5.35 µM
same,IC50,second compound 1 µM,0.716 µM
same,"viability, T/C","second compound 0.00316 µM, first compound 0.0316 µM",83.7%
same,"viability, T/C","second compound 0.00316 µM, first compound 0.1 µM",76%
same,"viability, T/C","second compound 0.00316 µM, first compound 0.316 µM",92%
same,"viability, T/C","second compound 0.00316 µM, first compound 1 µM",110%
same,"viability, T/C","second compound 0.00316 µM, first compound 3.16 µM",95.3%
same,"viability, T/C","second compound 0.00316 µM, first compound 10 µM",85.5%
same,"viability, T/C","second compound 0.01 µM, first compound 0.0316 µM",99.1%
same,"viability, T/C","second compound 0.01 µM, first compound 0.1 µM",105%
same,"viability, T/C","second compound 0.01 µM, first compound 0.316 µM",91.4%
same,"viability, T/C","second compound 0.01 µM, first compound 1 µM",98.7%
same,"viability, T/C","second compound 0.01 µM, first compound 3.16 µM",46.5%
same,"viability, T/C","second compound 0.01 µM, first compound 10 µM",46%
same,"viability, T/C",[1],93.1%
same,"viability, T/C",[2],102%
same,"viability, T/C",[3],85.4%
same,"viability, T/C",[4],85.4%
same,"viability, T/C",[5],95.8%
same,"viability, T/C",[6],77.4%
same,"viability, T/C",[7],99.8%
same,"viability, T/C",[8],81%
same,"viability, T/C",[9],83.9%
same,"viability, T/C",[10],60.2%
same,"viability, T/C",[11],70.8%
same,"viability, T/C",[12],49.6%
same,"viability, T/C",[13],77.2%
same,"viability, T/C",[14],78.2%
same,"viability, T/C",[15],63.2%
same,"viability, T/C",[16],75.1%
same,"viability, T/C",[17],59.2%
same,"viability, T/C",[18],38%
same,"viability, T/C",[19],67.8%
same,"viability, T/C",[20],58.6%
same,"viability, T/C",[21],58.6%
same,"viability, T/C",[22],44%
same,"viability, T/C",[23],44.4%
same,"viability, T/C",[24],35.2%
